Measurements from PubChem BioAssay (NCI).
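Cultured in 96-well plates, cells were exposed to test compound for 48 hours across five concentrations. TGI: concentration producing complete growth inhibition.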

Tests used:
Experiment in all cases: DTP human tumour cell line panel, 48 h
786-0 renal = tested on: 786-0 renal
A549 NSCLC = tested on: A549 NSCLC
ACHN renal = tested on: ACHN renal
BT-549 breast = tested on: BT-549 breast
CAKI-1 renal = tested on: CAKI-1 renal
CCRF-CEM leukemia = tested on: CCRF-CEM leukemia
COLO 205 colon = tested on: COLO 205 colon
DU-145 prostate = tested on: DU-145 prostate
EKVX NSCLC = tested on: EKVX NSCLC
HCC-2998 colon = tested on: HCC-2998 colon
HCT-116 colon = tested on: HCT-116 colon
HCT-15 colon = tested on: HCT-15 colon
HL-60(TB) leukemia = tested on: HL-60(TB) leukemia
HOP-62 NSCLC = tested on: HOP-62 NSCLC
HOP-92 NSCLC = tested on: HOP-92 NSCLC
HS 578T breast = tested on: HS 578T breast
HT29 colon = tested on: HT29 colon
IGROV1 ovarian = tested on: IGROV1 ovarian
KM12 colon = tested on: KM12 colon
LOX IMVI melanoma = tested on: LOX IMVI melanoma
M14 melanoma = tested on: M14 melanoma
MALME-3M melanoma = tested on: MALME-3M melanoma
MCF7 breast = tested on: MCF7 breast
MDA-MB-231 breast = tested on: MDA-MB-231 breast
MDA-MB-435 = tested on: MDA-MB-435
MDA-N = tested on: MDA-N
MOLT-4 leukemia = tested on: MOLT-4 leukemia
NCI-H226 lung = tested on: NCI-H226 lung
NCI-H23 lung = tested on: NCI-H23 lung
NCI-H522 lung = tested on: NCI-H522 lung
NCI/ADR-RES ovarian = tested on: NCI/ADR-RES ovarian
OVCAR-3 ovarian = tested on: OVCAR-3 ovarian
OVCAR-4 ovarian = tested on: OVCAR-4 ovarian
OVCAR-5 ovarian = tested on: OVCAR-5 ovarian
OVCAR-8 ovarian = tested on: OVCAR-8 ovarian
PC-3 prostate = tested on: PC-3 prostate
RPMI-8226 leukemia = tested on: RPMI-8226 leukemia
RXF 393 renal = tested on: RXF 393 renal
SF-268 CNS = tested on: SF-268 CNS
SF-295 CNS = tested on: SF-295 CNS
SF-539 CNS = tested on: SF-539 CNS
SK-MEL-2 melanoma = tested on: SK-MEL-2 melanoma
SK-MEL-28 melanoma = tested on: SK-MEL-28 melanoma
SK-OV-3 ovarian = tested on: SK-OV-3 ovarian
SN12C renal = tested on: SN12C renal
SNB-19 CNS = tested on: SNB-19 CNS
SNB-75 CNS = tested on: SNB-75 CNS
SR leukemia = tested on: SR leukemia
SW-620 colon = tested on: SW-620 colon
T-47D breast = tested on: T-47D breast
TK-10 renal = tested on: TK-10 renal
U251 CNS = tested on: U251 CNS
UACC-257 melanoma = tested on: UACC-257 melanoma
UACC-62 melanoma = tested on: UACC-62 melanoma
UO-31 renal = tested on: UO-31 renal

Measured: TGI

Cc1ccc(/C=C2\N=C(N3CCOCC3)NC2=O)cc1
> 100 µM: all assays above
